From patent US20060069132A1, “Azolecarboxamide herbicides” (priority 2004, published 2006)

Tests used:
barnyardgrass [1] = test: Test B flooded paddy test; type: in vivo, Echinochloa crus-galli; settings: 1000 g ai/ha, scale 0 to 100 (0 no effect, 100 complete control)
Summary of the method: (§1)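 Greenhouse test; postemergence application to plants at 1–4 leaves (2–18 cm); paddy species at 2 leaves; evaluated visually vs controls at 13–15 days; scale 0–100 (100 = complete control).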

Surinam grass = test: Test B pre-/postemergence herbicide test; type: in vivo, Urochloa decumbens; settings: for Surinam Grass plant response rating (0 to 100 scale) / Plant response rating, Surinam Grass: 0 = no effect, 100 = complete control, preemergence; for Surinam Grass plant response rating: postemergence
Summary of the method: (§2)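 Flooded paddy rice and barnyardgrass were treated at the 2-leaf stage; upland plantings received compound either on sown seed or on 1- to 4-leaf seedlings. All were kept 13–15 days in a greenhouse and scored visually, 0–100, relative to untreated plants.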

ducksalad = test: Test B flooded paddy test; type: in vivo, Heteranthera limosa; settings: 1000 g ai/ha, scale 0 to 100 (0 no effect, 100 complete control)
Summary of the method: as §1

large crabgrass = test: Test B pre-/postemergence herbicide test; type: in vivo, Digitaria sanguinalis; settings: for Crabgrass, Large plant response rating (0 to 100 scale) / Plant response rating, Crabgrass, Large: 0 = no effect, 100 = complete control, preemergence; for Crabgrass, Large plant response rating: postemergence
Summary of the method: as §2

wheat = test: Test B postemergence herbicide test; type: in vivo, Triticum aestivum; set-up: key to Wheat plant response rating: 0 = no effect, 100 = complete control; settings: postemergence
Summary of the method: (§3)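 Each value is a visual 0–100 response rating taken against controls 13 to 15 days after treatment in the greenhouse. Plants received formulated chemical postemergence at the 1- to 4-leaf stage or, in flooded paddy, at the 2-leaf stage.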

cocklebur = test: Test B pre-/postemergence herbicide test; type: in vivo, Xanthium strumarium; settings: for Cocklebur plant response rating (0 to 100 scale) / Plant response rating, Cocklebur: 0 = no effect, 100 = complete control, preemergence; for Plant response rating, Cocklebur / Cocklebur plant response rating: visual rating; for Cocklebur plant response rating: postemergence, scale 0 (no effect) to 100 (complete control)
Summary of the method: (§4)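 Greenhouse pot assay with simultaneous preemergence (treated seed) and postemergence (2–18 cm seedlings) applications of surfactant-containing, non-phytotoxic solvent formulations. Response scored visually 13–15 days later on a 0–100 scale, 100 meaning complete control.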

pigweed = test: Test B pre-/postemergence herbicide test; type: in vivo, Amaranthus retroflexus; settings: for Pigweed plant response rating (0 to 100 scale) / Plant response rating, Pigweed: 0 = no effect, 100 = complete control, preemergence; for Pigweed plant response rating: postemergence
Summary of the method: as §2

giant foxtail = test: Test B pre-/postemergence herbicide test; type: in vivo, Setaria faberi; settings: for Foxtail, Giant plant response rating (0 to 100 scale) / Plant response rating, Foxtail, Giant: 0 = no effect, 100 = complete control, preemergence; for Foxtail, Giant plant response rating: postemergence
Summary of the method: as §2

blackgrass = test: Test B postemergence herbicide test; type: in vivo, Alopecurus myosuroides; settings: postemergence, visual rating, scale 0 (no effect) to 100 (complete control)
Summary of the method: as §1

velvetleaf = test: Test B pre-/postemergence herbicide test; type: in vivo, Abutilon theophrasti; settings: for Velvetleaf plant response rating: postemergence
Summary of the method: as §2

rice [2] = test: Test B flooded paddy test; type: in vivo, Oryza sativa; settings: 1000 g ai/ha, scale 0 to 100 (0 no effect, 100 complete control)
Summary of the method: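 After treating 2-leaf paddy plants or 2–18 cm postemergence plants (1 to 4 leaves) with formulated chemical, researchers kept them in a greenhouse for 13–15 days. Effects were judged visually versus controls: 0 indicates none, 100 total control.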

rice [3] = test: Test B pre-/postemergence herbicide test; type: in vivo, Oryza sativa; settings: 0 = no effect, 100 = complete control, preemergence; for Rice plant response rating (0 to 100 scale): 125 g ai/ha; for Plant response rating, Rice: 500 g ai/ha, visual rating
Summary of the method: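 Evaluation is visual, comparing treated with control plants on a scale where 0 means no effect and 100 means full control. Treatments were preemergence, or postemergence on seedlings 2–18 cm tall, and held 13–15 days in the greenhouse.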

wild oat = test: Test B postemergence herbicide test; type: in vivo, Avena fatua; settings: postemergence
Summary of the method: as §3

barnyardgrass [4] = test: Test B pre-/postemergence herbicide test; type: in vivo, Echinochloa crus-galli; settings: for Barnyardgrass plant response rating (0 to 100 scale) / Plant response rating, Barnyardgrass: 0 = no effect, 100 = complete control, preemergence; for Plant response rating, Barnyardgrass / Barnyardgrass plant response rating: visual rating; for Barnyardgrass plant response rating: postemergence, scale 0 (no effect) to 100 (complete control)
Summary of the method: as §4

morningglory = test: Test B pre-/postemergence herbicide test; type: in vivo, Ipomoea coccinea; settings: for Morningglory plant response rating (0 to 100 scale) / Plant response rating, Morningglory: 0 = no effect, 100 = complete control, preemergence; for Morningglory plant response rating: postemergence
Summary of the method: as §4

[5] = test system: small flower umbrella sedge; test: Test B flooded paddy test; type: in vivo, Cyperus difformis; settings: 1000 g ai/ha, scale 0 to 100 (0 no effect, 100 complete control)
Summary of the method: as §1

corn = test: Test B pre-/postemergence herbicide test; type: in vivo, Zea mays; settings: for Corn plant response rating (0 to 100 scale) / Plant response rating, Corn: 0 = no effect, 100 = complete control, preemergence; for Corn plant response rating: postemergence
Summary of the method: as §2

lambsquarters = test: Test B pre-/postemergence herbicide test; type: in vivo, Chenopodium album; settings: for Lambsquarters plant response rating (0 to 100 scale) / Plant response rating, Lambsquarters: 0 = no effect, 100 = complete control, preemergence; for Lambsquarters plant response rating: postemergence
Summary of the method: as §2

[6] = 125 g ai/ha, visual rating, scale 0 (no effect) to 100 (complete control)
[7] = 500 g ai/ha, visual rating, scale 0 (no effect) to 100 (complete control)
[8] = 125 g ai/ha, 0 = no effect, 100 = complete control, preemergence
[9] = 500 g ai/ha, scale 0 to 100, 0 is no effect, 100 is complete control

With `C=CCNC(=O)c1ccc(F)c(NC(=O)c2sc(CC)nc2C(C)(C)C)c1` [Compound 237] the “Barnyardgrass plant response rating” value (barnyardgrass [1]) was 60, the “Surinam Grass plant response rating (0 to 100 scale)” value (Surinam grass; 125 g ai/ha) was 10 and the “Plant response rating, Surinam Grass” value (Surinam grass; 500 g ai/ha, visual rating) was 30. For the same compound, the “Surinam Grass plant response rating” value (Surinam grass; [6]) was 20, the “Surinam Grass plant response rating” value (Surinam grass; [7]) was 20 and the “Ducksalad plant response rating” value (ducksalad) was 80. For the same compound, the “Crabgrass, Large plant response rating (0 to 100 scale)” value (large crabgrass; 125 g ai/ha) was 30, the “Plant response rating, Crabgrass, Large” value (large crabgrass; 500 g ai/ha, visual rating) was 90 and the “Crabgrass, Large plant response rating” value (large crabgrass; [6]) was 10. The “Crabgrass, Large plant response rating” value (large crabgrass; [7]) was 20, the “Wheat plant response rating” value (wheat; [6]) was 10 and the “Wheat plant response rating” value (wheat; [7]) was 20. The “Cocklebur plant response rating (0 to 100 scale)” value (cocklebur; 125 g ai/ha) was 0, the “Plant response rating, Cocklebur” value (cocklebur; 500 g ai/ha) was 0 and the “Cocklebur plant response rating” value (cocklebur; 125 g ai/ha) was 10. The “Cocklebur plant response rating” value (cocklebur; 500 g ai/ha) was 40, the “Pigweed plant response rating (0 to 100 scale)” value (pigweed; 125 g ai/ha) was 20 and the “Plant response rating, Pigweed” value (pigweed; 500 g ai/ha, visual rating) was 70. For the same compound, the “Pigweed plant response rating” value (pigweed; [6]) was 30, the “Pigweed plant response rating” value (pigweed; [7]) was 60 and the “Foxtail, Giant plant response rating (0 to 100 scale)” value (giant foxtail; 125 g ai/ha) was 0. The “Plant response rating, Foxtail, Giant” value (giant foxtail; 500 g ai/ha, visual rating) was 40, the “Foxtail, Giant plant response rating” value (giant foxtail; [6]) was 10 and the “Foxtail, Giant plant response rating” value (giant foxtail; [7]) was 20. For the same compound, the “Blackgrass plant response rating” value (blackgrass; 125 g ai/ha) was 0, the “Blackgrass plant response rating” value (blackgrass; 500 g ai/ha) was 10 and the “Velvetleaf plant response rating (0 to 100 scale)” value (velvetleaf; [8]) was 30. The “Plant response rating, Velvetleaf” value (velvetleaf; 500 g ai/ha, visual rating, 0 = no effect, 100 = complete control, preemergence) was 60, the “Velvetleaf plant response rating” value (velvetleaf; [6]) was 30 and the “Velvetleaf plant response rating” value (velvetleaf; [7]) was 50. For the same compound, the “Rice plant response rating” value (rice [2]) was 50, the “Rice plant response rating (0 to 100 scale)” value (rice [3]) was 0 and the “Plant response rating, Rice” value (rice [3]) was 30. The “Oat, Wild plant response rating” value (wild oat; [6]) was 0, the “Oat, Wild plant response rating” value (wild oat; [7]) was 20 and the “Barnyardgrass plant response rating (0 to 100 scale)” value (barnyardgrass [4]; 125 g ai/ha) was 20. The “Plant response rating, Barnyardgrass” value (barnyardgrass [4]; 500 g ai/ha) was 50, the “Morningglory plant response rating (0 to 100 scale)” value (morningglory; 125 g ai/ha) was 0 and the “Plant response rating, Morningglory” value (morningglory; 500 g ai/ha, visual rating) was 20. The “Morningglory plant response rating” value (morningglory; [6]) was 20, the “Morningglory plant response rating” value (morningglory; [7]) was 60 and the “Sedge, Umbrella plant response rating” value [5] was 40. For the same compound, the “Corn plant response rating (0 to 100 scale)” value (corn; 125 g ai/ha) was 0, the “Plant response rating, Corn” value (corn; 500 g ai/ha, visual rating) was 20 and the “Corn plant response rating” value (corn; [6]) was 20. For the same compound, the “Corn plant response rating” value (corn; [7]) was 40, the “Lambsquarters plant response rating (0 to 100 scale)” value (lambsquarters; 125 g ai/ha) was 70 and the “Plant response rating, Lambsquarters” value (lambsquarters; 500 g ai/ha, visual rating) was 90. For the same compound, the “Lambsquarters plant response rating” value (lambsquarters; [6]) was 60 and the “Lambsquarters plant response rating” value (lambsquarters; [7]) was 70.
For `CCc1nn(C(C)(C)C)cc1C(=O)Nc1ccc(F)c(C(=O)N(CC)CC)c1` [Compound 240], the “Barnyardgrass plant response rating” value (barnyardgrass [1]) was 0, the “Surinam Grass plant response rating (0 to 100 scale)” value (Surinam grass; 125 g ai/ha) was 0 and the “Plant response rating, Surinam Grass” value (Surinam grass; 500 g ai/ha, visual rating) was 20. For the same compound, the “Surinam Grass plant response rating” value (Surinam grass; [6]) was 0, the “Surinam Grass plant response rating” value (Surinam grass; [9]) was 20 and the “Ducksalad plant response rating” value (ducksalad) was 0. For the same compound, the “Crabgrass, Large plant response rating (0 to 100 scale)” value (large crabgrass; 125 g ai/ha) was 20, the “Plant response rating, Crabgrass, Large” value (large crabgrass; 500 g ai/ha, visual rating) was 100 and the “Crabgrass, Large plant response rating” value (large crabgrass; [6]) was 0. For the same compound, the “Crabgrass, Large plant response rating” value (large crabgrass; [9]) was 20, the “Wheat plant response rating” value (wheat; [6]) was 0 and the “Wheat plant response rating” value (wheat; [9]) was 20. The “Cocklebur plant response rating (0 to 100 scale)” value (cocklebur; 125 g ai/ha) was 0, the “Plant response rating, Cocklebur” value (cocklebur; 500 g ai/ha) was 0 and the “Cocklebur plant response rating” value (cocklebur; 125 g ai/ha) was 0. For the same compound, the “Cocklebur plant response rating” value (cocklebur; 500 g ai/ha) was 20, the “Pigweed plant response rating (0 to 100 scale)” value (pigweed; 125 g ai/ha) was 0 and the “Plant response rating, Pigweed” value (pigweed; 500 g ai/ha, visual rating) was 100. The “Pigweed plant response rating” value (pigweed; [6]) was 0, the “Pigweed plant response rating” value (pigweed; [9]) was 50 and the “Foxtail, Giant plant response rating (0 to 100 scale)” value (giant foxtail; 125 g ai/ha) was 0. For the same compound, the “Plant response rating, Foxtail, Giant” value (giant foxtail; 500 g ai/ha, visual rating) was 80, the “Foxtail, Giant plant response rating” value (giant foxtail; [6]) was 0 and the “Foxtail, Giant plant response rating” value (giant foxtail; [9]) was 0. The “Blackgrass plant response rating” value (blackgrass; 125 g ai/ha) was 0, the “Blackgrass plant response rating” value (blackgrass; 500 g ai/ha) was 10 and the “Velvetleaf plant response rating (0 to 100 scale)” value (velvetleaf; [8]) was 0. The “Velvetleaf plant response rating” value (velvetleaf; [6]) was 0, the “Velvetleaf plant response rating” value (velvetleaf; [9]) was 10 and the “Rice plant response rating” value (rice [2]) was 0. For the same compound, the “Rice plant response rating (0 to 100 scale)” value (rice [3]) was 0, the “Plant response rating, Rice” value (rice [3]) was 0 and the “Oat, Wild plant response rating” value (wild oat; [6]) was 0. For the same compound, the “Oat, Wild plant response rating” value (wild oat; [9]) was 0, the “Barnyardgrass plant response rating (0 to 100 scale)” value (barnyardgrass [4]; 125 g ai/ha) was 0 and the “Plant response rating, Barnyardgrass” value (barnyardgrass [4]; 500 g ai/ha) was 70. The “Barnyardgrass plant response rating” value (barnyardgrass [4]; 125 g ai/ha) was 0, the “Barnyardgrass plant response rating” value (barnyardgrass [4]; 500 g ai/ha) was 0 and the “Morningglory plant response rating (0 to 100 scale)” value (morningglory; 125 g ai/ha) was 0. For the same compound, the “Plant response rating, Morningglory” value (morningglory; 500 g ai/ha, visual rating) was 0, the “Morningglory plant response rating” value (morningglory; [6]) was 20 and the “Morningglory plant response rating” value (morningglory; [9]) was 30. For the same compound, the “Sedge, Umbrella plant response rating” value [5] was 60, the “Corn plant response rating (0 to 100 scale)” value (corn; 125 g ai/ha) was 0 and the “Plant response rating, Corn” value (corn; 500 g ai/ha, visual rating) was 0. The “Corn plant response rating” value (corn; [6]) was 0, the “Corn plant response rating” value (corn; [9]) was 10 and the “Lambsquarters plant response rating (0 to 100 scale)” value (lambsquarters; 125 g ai/ha) was 0. The “Plant response rating, Lambsquarters” value (lambsquarters; 500 g ai/ha, visual rating) was 80, the “Lambsquarters plant response rating” value (lambsquarters; [6]) was 20 and the “Lambsquarters plant response rating” value (lambsquarters; [9]) was 50.
